According to patent US20240398773A1, “COMPOSITIONS COMPRISING OTESECONAZOLE” (Mycovia Pharmaceuticals, Inc., priority 2021, published 2024):

Tested on: Candida species
Experiment: Phase 2a dose-ranging study in moderate-to-severe acute VVC, effective therapeutic cure
Format: in vivo, human
Details: comparator arm, single dose of fluconazole 150 mg; Per Protocol population
Procedure: Oteseconazole has previously been evaluated in a Phase 2a multi-center, randomized, double-blind, active-controlled, parallel-group, dose-ranging study in patients with moderate-to-severe acute VVC. A total of 55 subjects with moderate-to-severe acute VVC (severity score ≥6 and a positive fungal KOH test) participated in the study across 4 dose groups: 1) oteseconazole 300 mg qd for 3 days: 2) 600 mg qd for 3 days: 3) 600 mg bid for 3 days; or 4) a single dose of fluconazole 150 mg followed by matching placebo. […] No safety signals of clinical concern were observed from the safety assessments.
The efficacy of oteseconazole in the treatment of moderate-to-severe acute VVC was evaluated at the TOC visit in the Per Protocol population at the Day 28 test of cure (TOC) visit was, 87%, 86%, 86%, and 75% of subjects receiving the low, mid-, or high-dose oteseconazole or comparator arm of fluconazole, respectively, achieved an effective therapeutic cure (defined as having a total clinical signs and symptoms severity score of ≤1 and a negative culture for Candida species) in the Per Protocol population

Structure (SMILES): OC(Cn1cncn1)(Cn1cncn1)c1ccc(F)cc1F [fluconazole, reference compound]
- subjects achieving effective therapeutic cure at Day 28 TOC visit: 75%
